From publication PMC6297231 (Nature Communications, 2018)
Where two headings read alike, the source gives them in different places.

Assays:
[1] = tested on: MM1R; experiment: Cell viability assay; assay type: cell-based; details: MM.1R, 24 h, read-out: AZD5991 24h GI50
Experimental: (§1) Cells were plated at 3000 cells/well in 384-well white plates in corresponding cell growth media. […] Caspase-3/7 activation was subsequently determined using a Caspase-Glo 3/7 Reagent (Promega) and viability was assayed using the CellTiter-Glo Reagent (Promega) as described in manufacturer’s instructions. Dose–response curves for caspase-3/7 activation and viability were plotted and analyzed (including EC50 and GI50 determination) using GraphPad Prism.

[2] = tested on: Karpas620; experiment: Cell viability assay; assay type: cell-based; details: Karpas-620, 24 h; Karpas620 (MM); read-out: AZD5991 24h GI50
Experimental: as §1

[3] = tested on: JJN3; experiment: Cell viability assay; assay type: cell-based; details: Homo sapiens, JJN-3, 24 h; JJN3 (MM); read-out: AZD5991 24h GI50
Experimental: as §1

[4] = tested on: MUTZ3; experiment: Cell viability assay; assay type: cell-based; details: 24 h; MUTZ3 (AML); read-out: AZD5991 24h GI50
Experimental: as §1

[5] = tested on: KG1a; experiment: Cell viability assay; assay type: cell-based; details: Homo sapiens, KG-1a, 24 h; KG1a (AML); read-out: AZD5991 24h GI50
Experimental: as §1

[6] = tested on: DOHH2; experiment: Cell viability assay; assay type: cell-based; details: Homo sapiens, DOHH-2, 24 h; DOHH2 (NHL); read-out: AZD5991 24h GI50
Experimental: as §1

[7] = tested on: Ramos; experiment: Cell viability assay; assay type: cell-based; details: Homo sapiens, 24 h; Ramos (NHL); read-out: AZD5991 24h GI50
Experimental: as §1

[8] = tested on: Sudhl10; experiment: Cell viability assay; assay type: cell-based; details: Homo sapiens, SU-DHL10, 24 h; Sudhl10 (NHL); read-out: AZD5991 24h GI50
Experimental: as §1

[9] = tested on: Sudhl2; experiment: Cell viability assay; assay type: cell-based; details: Homo sapiens, SU-DHL-2, 24 h; Sudhl2 (NHL); read-out: AZD5991 24h GI50
Experimental: as §1

[10] = tested on: VAL; experiment: Cell viability assay; assay type: cell-based; details: 24 h; VAL (NHL); read-out: AZD5991 24h GI50
Experimental: as §1

[11] = tested on: H1734; experiment: Cell viability assay; assay type: cell-based; details: Homo sapiens, NCI-H1734, 24 h; H1734 (Lung); read-out: AZD5991 24h GI50
Experimental: as §1

[12] = tested on: H647; experiment: Cell viability assay; assay type: cell-based; details: Homo sapiens, NCI-H647, 24 h; H647 (Lung); read-out: AZD5991 24h GI50
Experimental: as §1

[13] = tested on: SBC5; experiment: Cell viability assay; assay type: cell-based; details: Homo sapiens, SBC-5, 24 h; SBC5 (Lung); read-out: AZD5991 24h GI50
Experimental: as §1

[14] = tested on: SKLU1; experiment: Cell viability assay; assay type: cell-based; details: Homo sapiens, SK-LU-1, 24 h; SKLU1 (Lung); read-out: AZD5991 24h GI50
Experimental: as §1

[15] = tested on: BT20; experiment: Cell viability assay; assay type: cell-based; details: Homo sapiens, BT-20, 24 h; BT20 (Breast); read-out: AZD5991 24h GI50
Experimental: as §1

[16] = tested on: HCC1954; experiment: Cell viability assay; assay type: cell-based; details: Homo sapiens, 24 h; HCC1954 (Breast); read-out: AZD5991 24h GI50
Experimental: as §1

[17] = tested on: A2058; experiment: Cell viability assay; assay type: cell-based; details: Homo sapiens, 24 h; A2058 (Skin); read-out: AZD5991 24h GI50
Experimental: as §1

[18] = tested on: SKMEL2; experiment: Cell viability assay; assay type: cell-based; details: Homo sapiens, SK-MEL-2, 24 h; SKMEL2 (Skin); read-out: AZD5991 24h GI50
Experimental: as §1

[19] = tested on: 5637; experiment: Cell viability assay; assay type: cell-based; details: 24 h; 5637 (Urology); read-out: AZD5991 24h GI50
Experimental: as §1

[20] = tested on: SNU1197; experiment: Cell viability assay; assay type: cell-based; details: 24 h; SNU1197 (GI); read-out: AZD5991 24h GI50
Experimental: as §1

[21] = tested on: OVCAR3; experiment: Cell viability assay; assay type: cell-based; details: Homo sapiens, OVCAR-3, 24 h; OVCAR3 (Others); read-out: AZD5991 24h GI50
Experimental: as §1

[22] = tested on: SKOV3; experiment: Cell viability assay; assay type: cell-based; details: Homo sapiens, SK-OV-3, 24 h; SKOV3 (Others); read-out: AZD5991 24h GI50
Experimental: as §1

[23] = tested on: Nomo1; experiment: Caspase-3/7 activation assay; assay type: cell-based; details: Homo sapiens, NOMO-1, 6 h
Experimental: as §1

[24] = tested on: OCIAML3; experiment: Caspase-3/7 activation assay; assay type: cell-based; details: Homo sapiens, OCI-AML-3, 6 h
Experimental: as §1

[25] = tested on: H23; experiment: Caspase-3/7 activation assay; assay type: cell-based; details: Homo sapiens
Experimental: as §1

[26] = tested on: NCI-H23 cells with enhanced expression of Bcl-xL; experiment: Cell death in NCI-H23 with doxycycline-inducible Bcl-xL
Text: The lentiviral plasmid pTRIPZ-FLAG-BCL-XL was used for generation of NCI-H23 cells stably expressing doxycyline-inducible Bcl-xL. To produce viruses, the construct of interest was co-transfected into HEK293T cells with a plasmid encoding the packaging viruses (pPACKH1 Lentivector Packaging Kit, cat#LV500A1 SystemBioscience) using Lipofectamine transfection reagent (ThermoFisher Scientific). The lentiviruses were harvested, filtered, and used to infect target cells following standard procedures. Transduced cells were then subject to puromycin selection for 3 weeks before evaluation in apoptosis and cell proliferation assays.
(b) NCI-H23 cells stably expressing doxycycline-inducible Bcl-xL were treated with
determined using CellTiter Glo and GraphPad Prism for data analysis. Data shown is the average of 2 experiments.

## Cc1c2c(nn1C)CSCc1cc(n(C)n1)CSc1cc(c3ccccc3c1)OCCCc1c(C(=O)O)n(C)c3c-2c(Cl)ccc13 (atropisomer, axis not shown; (Ra)) [(Ra)-7]
[1]
  GI50: 87 nM
[2]
  GI50: 87 nM
[3]
  GI50: 255 nM
[4]
  GI50: 4 nM
[5]
  GI50: 1430 nM
[6]
  GI50: 65 nM
[7]
  GI50: 11 nM
[8]
  GI50: 10 nM
[9]
  GI50: 585 nM
[10]
  GI50: 102 nM
[11]
  GI50: 13800 nM
[12]
  GI50: > 30000 nM
[13]
  GI50: 541 nM
[14]
  GI50: 29900 nM
[15]
  GI50: 4630 nM
[16]
  GI50: 756 nM
[17]
  GI50: 765 nM
[18]
  GI50: 9310 nM
[19]
  GI50: 28000 nM
[20]
  GI50: 27300 nM
[21]
  GI50: > 30000 nM
[22]
  GI50: 144 nM
[23]; read-out: 6h caspase EC50, NOMO1, single agent
  EC50: 32.5 nM
[23]; read-out: AZD5991 6h EC50, Nomo1 (AML), caspase 3/7 activation
  EC50: 47 nM
[24]; read-out: 6h caspase EC50, OCIAML3, single agent
  EC50: > 333 nM
[24]; read-out: AZD5991 6h EC50, OCIAML3 (AML), caspase 3/7 activation
  EC50: 782 nM
[25]; NCI-H23, 6 h, read-out: AZD5991 6h EC50, H23 (Lung), caspase 3/7 activation
  EC50: 346 nM
[25]; NCI-H23, caspase activation, Mcl-1-dependent cell line, read-out: NCI-H23, EC50
  EC50: 190 nM
[25]; NCI-H23, mean of log transformed data, read-out: NCI-H23 caspase pEC50 (converted)
  EC50: 195 nM
[26]
  induced cell death: resistance
